Activity calls are given as the source filed them.
Legend:
Galanin receptor type 3 = molecular target: T1, Galanin receptor type 3 (Homo sapiens, UniProt O60755); assay: Fluorescence-based cell-based primary high throughput dose response assay to identify antagonists of the Galanin Receptor 3 (GalR3).; assay type: functional
T1 sequence (O60755 whole entry): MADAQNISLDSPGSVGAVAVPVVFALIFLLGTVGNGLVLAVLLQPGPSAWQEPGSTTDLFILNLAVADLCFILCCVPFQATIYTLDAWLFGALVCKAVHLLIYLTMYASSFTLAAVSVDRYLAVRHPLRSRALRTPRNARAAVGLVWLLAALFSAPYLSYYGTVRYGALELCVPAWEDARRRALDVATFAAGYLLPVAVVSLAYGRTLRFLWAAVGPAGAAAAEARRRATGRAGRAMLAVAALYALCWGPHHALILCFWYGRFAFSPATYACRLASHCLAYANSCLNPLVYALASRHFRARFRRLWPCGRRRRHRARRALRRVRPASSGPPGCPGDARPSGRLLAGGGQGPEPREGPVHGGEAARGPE

cells [1] = assay type: functional, cell-based; settings: HEK-CNG
[2] = molecular target: T2, COUP transcription factor 2 (Homo sapiens, UniProt P24468); assay: Luminescence-based cell-based high throughput dose response assay to identify inhibitors of COUP-TFII (NR2F2).; assay type: functional;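 also: HEK293 cells transiently cotransfected with COUP-TFII expression vector and reporter; luciferase reporter luminescence driven by COUP-TFII from the pX2-168 reporter plasmid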
T2 sequence (P24468 whole entry): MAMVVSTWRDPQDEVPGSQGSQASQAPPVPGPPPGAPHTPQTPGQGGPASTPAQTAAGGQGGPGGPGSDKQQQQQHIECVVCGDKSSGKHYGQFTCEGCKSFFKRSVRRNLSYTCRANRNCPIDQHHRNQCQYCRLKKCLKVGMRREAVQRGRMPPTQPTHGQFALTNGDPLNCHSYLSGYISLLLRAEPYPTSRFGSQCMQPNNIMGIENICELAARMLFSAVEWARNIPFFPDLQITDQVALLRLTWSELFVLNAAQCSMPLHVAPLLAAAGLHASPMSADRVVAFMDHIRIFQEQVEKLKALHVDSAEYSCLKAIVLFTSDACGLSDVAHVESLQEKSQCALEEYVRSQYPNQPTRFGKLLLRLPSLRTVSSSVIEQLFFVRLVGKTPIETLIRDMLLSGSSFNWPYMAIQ

[3] = P. falciparum 3D7-ScDHODH growth inhibitors, dose response, SYBR Green, dry powder samples (AID 1159570); assay type: functional, cell-based;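 also: parasite growth measured after 72 hours of compound exposure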
[4] = HepG2 cell cytotoxicity, dose response, cytotoxicity control, plate reader, dry powder samples (AID 1159569); assay type: functional, cell-based;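 also: inhibitor potency with signal falling toward the positive control level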
[5] = P. falciparum Dd2 growth inhibitors, dose response, SYBR Green, cherry-picked samples (AID 1159567); assay type: functional, cell-based
[6] = P. falciparum Dd2 growth inhibitors, dose response, SYBR Green, dry powder samples (AID 1159566); assay type: functional, cell-based;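 also: potency for growth inhibition with lower SYBR green DNA signal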
[7] = P. falciparum ATP4 D1247Y mutant growth inhibitors, dose response, NITD609-resistant line, SYBR Green, dry powder (AID 1159571); assay type: functional, cell-based;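 also: parasites synchronized at ring stage by sorbitol before testing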
cells [8] = assay type: functional, cell-based
[9] = molecular target: T3, Trace amine-associated receptor 1 (Homo sapiens, UniProt Q96RJ0); assay: Fluorescence-based cell-based high throughput dose response assay to identify agonists of the human trace amine associated receptor 1 (TAAR1).; assay type: functional
T3 sequence (Q96RJ0 whole entry): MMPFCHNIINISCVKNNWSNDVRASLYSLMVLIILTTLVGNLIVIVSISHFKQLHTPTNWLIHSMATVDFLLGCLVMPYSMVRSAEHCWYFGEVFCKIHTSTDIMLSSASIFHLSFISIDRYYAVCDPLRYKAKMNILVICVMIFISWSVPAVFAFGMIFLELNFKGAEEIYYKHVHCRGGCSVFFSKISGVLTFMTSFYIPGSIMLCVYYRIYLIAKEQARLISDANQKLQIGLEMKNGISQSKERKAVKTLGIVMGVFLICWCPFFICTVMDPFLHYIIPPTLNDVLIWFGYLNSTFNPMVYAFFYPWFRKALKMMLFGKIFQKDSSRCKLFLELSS

[10] = molecular target: T3, Trace amine-associated receptor 1; assay: Counterscreen for agonists of the human trace amine associated receptor 1 (hTAAR1): Fluorescence-based cell-based high throughput dose response assay to identify hTAAR1 agonist that also desensitize TAAR1 receptor response.; assay type: functional
cells [11] = assay type: functional, cell-based; remark: listed apart in the source
Cytochrome P450 2C19 = Cytochrome P450 2C19 (Homo sapiens, UniProt P33261); assay: Cytochrome panel assay with activity outcomes. Panel member name: p450-cyp2c19 Compounds with AC50 equal or less than 10 uM are considered active; assay type: functional; settings: read-out: AC50
Beta-galactosidase = Beta-galactosidase (Escherichia coli, UniProt Q8VNN2); assay: Dose response counterscreen for EBI2 assay utilizing the enzyme, b-galactosidase.; assay type: functional
Cytochrome P450 2C9 = Cytochrome P450 2C9 (Homo sapiens, UniProt P11712)
Paired box protein Pax-8 = Paired box protein Pax-8 (Homo sapiens, UniProt Q06710); assay: inhibitors of PAX8-driven TPO luciferase reporter, dose response, RMG-I cells, cherry-pick (AID 687027); assay type: functional, cell-based;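 also: luciferase reporter driven by Pax8 target thyroperoxidase promoter measured by SteadyGlo luminescence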
[12] = A2780 ovarian cancer cell cytotoxicity, dose response, cytotoxicity control, plate reader, dry powder samples (AID 743046); assay type: functional, cell-based
[13] = NIH:OVCAR-3 ovarian cancer cell cytotoxicity, dose response, PAX8 inhibitor project, plate reader, dry powder samples (AID 743044); assay type: functional, cell-based
[14] = IGROV1 ovarian cancer cell cytotoxicity, dose response, PAX8 inhibitor project, plate reader, dry powder samples (AID 743043); assay type: functional, cell-based; settings: IGROV-1
[15] = cytotoxicity in OVCAR8 ovarian cancer cells, dose response, PAX8 project, cell-based, plate reader, dry powder samples (AID 743197); assay type: functional; settings: OVCAR-8

Chain of Paired box protein Pax-8 (Q06710 whole entry): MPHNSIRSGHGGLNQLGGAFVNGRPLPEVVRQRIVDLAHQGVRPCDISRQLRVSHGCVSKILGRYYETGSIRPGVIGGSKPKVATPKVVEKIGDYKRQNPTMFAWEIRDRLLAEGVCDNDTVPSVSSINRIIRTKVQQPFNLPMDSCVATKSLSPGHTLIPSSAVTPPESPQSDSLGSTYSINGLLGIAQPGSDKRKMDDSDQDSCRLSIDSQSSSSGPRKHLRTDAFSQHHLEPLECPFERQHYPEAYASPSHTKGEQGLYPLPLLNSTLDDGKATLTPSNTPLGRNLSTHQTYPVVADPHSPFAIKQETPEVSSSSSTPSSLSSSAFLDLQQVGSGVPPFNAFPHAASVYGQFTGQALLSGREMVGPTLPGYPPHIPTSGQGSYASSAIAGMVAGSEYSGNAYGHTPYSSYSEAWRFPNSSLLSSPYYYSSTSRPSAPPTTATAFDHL
Chain of Beta-galactosidase (Q8VNN2 whole entry): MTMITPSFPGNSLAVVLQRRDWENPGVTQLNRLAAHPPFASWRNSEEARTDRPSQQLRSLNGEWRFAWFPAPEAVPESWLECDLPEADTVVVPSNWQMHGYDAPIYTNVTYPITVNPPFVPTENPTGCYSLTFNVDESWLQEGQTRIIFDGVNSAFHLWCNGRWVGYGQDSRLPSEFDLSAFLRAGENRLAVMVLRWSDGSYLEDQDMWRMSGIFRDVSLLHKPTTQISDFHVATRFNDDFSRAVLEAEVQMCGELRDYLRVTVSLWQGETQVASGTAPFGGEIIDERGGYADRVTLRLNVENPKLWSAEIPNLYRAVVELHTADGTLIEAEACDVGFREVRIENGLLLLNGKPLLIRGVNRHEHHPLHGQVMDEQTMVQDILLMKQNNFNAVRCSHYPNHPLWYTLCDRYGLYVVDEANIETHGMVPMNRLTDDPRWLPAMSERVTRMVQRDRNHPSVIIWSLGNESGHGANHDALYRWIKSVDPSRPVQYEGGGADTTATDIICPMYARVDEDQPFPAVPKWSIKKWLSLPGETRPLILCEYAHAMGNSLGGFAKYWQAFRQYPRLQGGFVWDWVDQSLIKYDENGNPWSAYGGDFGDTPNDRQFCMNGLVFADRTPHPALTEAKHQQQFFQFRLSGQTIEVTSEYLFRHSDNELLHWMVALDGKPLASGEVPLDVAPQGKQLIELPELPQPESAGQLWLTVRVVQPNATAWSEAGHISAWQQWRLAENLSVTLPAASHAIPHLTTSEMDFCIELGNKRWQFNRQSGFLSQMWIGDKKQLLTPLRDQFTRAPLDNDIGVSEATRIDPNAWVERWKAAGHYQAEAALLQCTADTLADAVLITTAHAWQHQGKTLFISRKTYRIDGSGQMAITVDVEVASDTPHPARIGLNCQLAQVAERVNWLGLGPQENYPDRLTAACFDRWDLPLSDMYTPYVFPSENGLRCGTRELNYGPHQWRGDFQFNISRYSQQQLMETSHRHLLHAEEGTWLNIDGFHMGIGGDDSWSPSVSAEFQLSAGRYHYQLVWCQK
Chain of Cytochrome P450 2C9 (P11712 whole entry): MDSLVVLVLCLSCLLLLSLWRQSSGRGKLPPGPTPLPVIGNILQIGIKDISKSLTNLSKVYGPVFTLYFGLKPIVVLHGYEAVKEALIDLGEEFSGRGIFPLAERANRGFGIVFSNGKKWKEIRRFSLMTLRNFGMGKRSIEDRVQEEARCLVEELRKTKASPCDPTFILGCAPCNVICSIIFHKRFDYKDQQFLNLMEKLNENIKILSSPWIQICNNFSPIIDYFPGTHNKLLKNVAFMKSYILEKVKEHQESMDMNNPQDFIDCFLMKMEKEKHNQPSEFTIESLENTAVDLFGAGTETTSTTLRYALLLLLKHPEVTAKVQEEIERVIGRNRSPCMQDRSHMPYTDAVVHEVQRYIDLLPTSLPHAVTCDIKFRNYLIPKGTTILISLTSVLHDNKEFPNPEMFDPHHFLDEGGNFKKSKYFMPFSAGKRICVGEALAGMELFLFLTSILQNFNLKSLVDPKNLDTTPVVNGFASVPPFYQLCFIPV
Chain of Cytochrome P450 2C19 (P33261 whole entry): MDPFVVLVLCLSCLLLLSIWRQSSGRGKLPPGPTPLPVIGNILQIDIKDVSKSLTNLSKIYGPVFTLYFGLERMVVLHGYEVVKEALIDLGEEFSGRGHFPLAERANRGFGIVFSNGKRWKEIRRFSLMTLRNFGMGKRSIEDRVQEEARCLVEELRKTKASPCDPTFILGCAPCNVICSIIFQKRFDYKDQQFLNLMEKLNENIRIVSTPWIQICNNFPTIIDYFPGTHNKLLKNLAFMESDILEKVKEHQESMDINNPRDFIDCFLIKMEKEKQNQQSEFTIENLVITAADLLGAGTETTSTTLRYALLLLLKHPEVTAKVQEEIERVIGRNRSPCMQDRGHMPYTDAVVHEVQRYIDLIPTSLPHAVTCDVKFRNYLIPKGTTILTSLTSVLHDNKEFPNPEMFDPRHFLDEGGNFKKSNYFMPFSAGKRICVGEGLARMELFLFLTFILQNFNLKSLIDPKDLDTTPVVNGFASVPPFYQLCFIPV

Structure (SMILES): Fc1ccc(CN2CCN(c3ncc(Cc4ccccc4)cn3)CC2)c(Cl)c1
- IC50 (Galanin receptor type 3): 1.06 µM (active)
- EC50 (cells [1]): > 29.9 µM (inactive)
- IC50 [2]: 10.1 µM (inactive)

Structure (SMILES): C[C@H]1CN([C@@H](C)CO)C(=O)c2ccccc2-c2ccccc2CO[C@@H]1CN(C)C(=O)Nc1ccc(-c2ccccc2)cc1
- AC50 [3]: 1.35 µM (active)
- AC50 [4]: > 100 µM (inactive)
- AC50 [5]: 1.77 µM (active)
- AC50 [6]: 0.723 µM (active)
- AC50 [7]: 1.56 µM (active)

Structure (SMILES): COc1ccccc1CN1CC2(C1)[C@H](c1ccccc1)[C@H](CO)N2Cc1ccccc1
- AC50 [3]: 4.14 µM (active)
- AC50 [4]: 23.9 µM (active)
- AC50 [6]: 1.96 µM (active)
- AC50 [7]: 2.85 µM (active)

Structure (SMILES): Cc1ccccc1-c1nc(CS(=O)(=O)CC(=O)NCCc2ccccc2)c(C)o1
- IC50 (cells [8]): > 29.9 µM (inactive)
- EC50 [9]: 3.59 µM (active)
- IC50 [10]: 8.58 µM (active)
- EC50 (cells [11]): > 29.9 µM (inactive)

Structure (SMILES): O=C(COc1ccc2ccccc2c1)N1CCN(C(=O)c2cccnc2)CC1
- AC50 (Cytochrome P450 2C19): 15.8 µM (inconclusive)
- IC50 (Beta-galactosidase): > 80 µM (inactive)
- AC50 (Cytochrome P450 2C9): 31.6 µM (inconclusive)

Structure (SMILES): COc1ccc(-c2ccc3c(c2)[C@@H]2[C@@H](CCN2C(=O)C2CCCCC2)[C@H](CO)N3C)cc1
- AC50 (Paired box protein Pax-8): 6.75 µM (active)
- AC50 [12]: 10.7 µM (active)
- AC50 [13]: 25.2 µM (active)
- AC50 [14]: 47.5 µM (active)
- AC50 [15]: 32.7 µM (active)

Structure (SMILES): C[C@@H]1CN([C@H](C)CO)C(=O)c2cc(C#Cc3cccc(F)c3)cnc2O[C@@H]1CN(C)C(=O)C1CCCCC1
- AC50 [3]: 3.19 µM (active)
- AC50 [4]: 30.1 µM (active)
- AC50 [5]: 2.91 µM (active)
- AC50 [6]: 2.16 µM (active)
- AC50 [7]: 2.66 µM (active)
